Read-outs that look alike come from different tables or passages of the source. Non-standard residues stand in square brackets, D forms with d. Residues, ends and D or L forms follow the SMILES beside them. *: point of attachment. X1 = O=C(O)CCCCCCCCCCCCCCCCCCC(=O)NC[C@H]1CC[C@H](C(=O)N[C@@H](CCC(=O)NCCOCCOCC(=O)NCCOCCOCC(=O)NCCOCCOCC(=O)NCCOCCOCC(=O)NCCOCCOCC(=O)NCCOCCOCC(=O)NCCCN(CCCNC(=O)COCCOCCNC(=O)COCCOCCNC(=O)COCCOCCNC(=O)COCCOCCNC(=O)COCCOCCNC(=O)COCCOCCNC(=O)CC[C@H](NC(=O)[C@H]2CC[C@H](CNC(=O)CCCCCCCCCCCCCCCCCCC(=O)O)CC2)C(=O)O)CC(=O)*)C(=O)O)CC1; Aib = CC(C)(N)C(=O)O
What was measured:
[1] = target: T1, human GLP-1 receptor (Homo sapiens, UniProt P43220); experiment: In vitro potency: CRE luciferase reporter gene assay in BHK cells expressing the human GLP-1 receptor; assay type: cell-based
T1 construct: expressed in transfected cells; host or cells: BHK cells (parent line BHKTS13), clone FCW467-12A; membrane preparation
T1 sequence (P43220 24-463): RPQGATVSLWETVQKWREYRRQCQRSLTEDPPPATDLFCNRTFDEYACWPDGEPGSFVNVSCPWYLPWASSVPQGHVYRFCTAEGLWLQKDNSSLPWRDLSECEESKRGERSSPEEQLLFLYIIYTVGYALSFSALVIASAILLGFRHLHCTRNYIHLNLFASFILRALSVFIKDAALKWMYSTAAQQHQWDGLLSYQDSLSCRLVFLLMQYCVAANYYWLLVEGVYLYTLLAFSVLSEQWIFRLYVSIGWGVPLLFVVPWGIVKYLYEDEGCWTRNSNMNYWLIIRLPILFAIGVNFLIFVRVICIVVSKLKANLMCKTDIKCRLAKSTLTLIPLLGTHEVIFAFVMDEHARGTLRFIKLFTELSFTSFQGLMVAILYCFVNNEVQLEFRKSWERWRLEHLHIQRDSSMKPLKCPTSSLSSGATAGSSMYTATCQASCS
Summary of the method: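 Whole-cell assay in stably transfected BHK cells carrying CRE-driven firefly luciferase, 5×10^3 cells/well, in assay buffer with 2% ovalbumin and 0.2% Pluronic F-68. Compound working solutions were 0.2 μM.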

[2] = target: T1, human GLP-1 receptor; experiment: GLP-1 receptor binding: competitive binding assay (125I-GLP-1, SPA) on isolated membranes at low and high HSA
[3] = Pharmacokinetic study in minipigs (i.v.); details: male, Göttingen, minipig, in vivo, iv
Protocol: The purpose of this study is to determine the protraction in vivo of the GLP-1 derivatives after i.v. administration to minipigs, i.e. the prolongation of their time in the body and thereby their time of action. This is done in a pharmacokinetic (PK) study, where the terminal half-life of the derivative in question is determined. By terminal half-life is meant the time it takes to halve a certain plasma concentration in the terminal elimination phase.
Male Göttingen minipigs were obtained from Ellegaard Göttingen Minipigs (Dalmose, Denmark) approximately 7-14 months of age and weighing approximately 16-35 kg were used in the studies. The minipigs were housed either individually (pigs with permanent catheters) or in a group and fed restrictedly once or twice daily with SDS minipig diet (Special Diets Services, Essex, UK).
After at least 2 weeks of acclimatisation two permanent central venous catheters were implanted in vena cava caudalis or cranialis in each animal. The animals were allowed 1 week recovery after the surgery, and were then used for repeated pharmacokinetic studies with a suitable wash-out period between successive GLP-1 derivative dosings.
Blood samples (for example 0.8 ml) were collected in EDTA buffer (8 mM) and then centrifuged at 4° C. and 1942G for 10 minutes.
Plasma was pipetted into Micronic tubes on dry ice, and kept at −20° C. until analysed for plasma concentration of the respective GLP-1 compound using LOCI. Individual plasma concentration-time profiles were analyzed by a non-compartmental pharmacokinetic method in Phoenix v. 6.2 (Pharsight Inc., Mountain View, Calif., USA), or other relevant software for PK analysis, and the resulting terminal half-lives (harmonic mean) determined.

[4] = whole cell reporter gene assay, BHK cells, human GLP-1 receptor, average of at least two replicates, read-out: EC50
[5] = Low HSA IC50, low HSA (max. 0.001% final assay concentration)
[6] = high HSA (2.0% final assay concentration), read-out: High HSA IC50

Compound	EC50 [1, 4] [pM]	IC50 [2, 5] [pM]	IC50 [2, 6] [pM]	half-life ([3]; 5 nmol/kg) [h]	EC50 [1] [pM]	IC50 ([2]; High HSA IC50, high HSA (2.0% final assay concentration)) [pM]	half-life ([3]; 2 nmol/kg) [h]
CC[C@H](C)[C@H](NC(=O)[C@H](Cc1ccccc1)NC(=O)[C@H](CCC(=O)O)NC(=O)[C@H](CCCNC(=N)N)NC(=O)[C@H](C)NC(=O)[C@H](C)NC(=O)[C@H](CCC(N)=O)NC(=O)[C@H](CCC(=O)O)NC(=O)[C@H](CCC(=O)O)NC(=O)[C@H](CC(C)C)NC(=O)[C@H](Cc1ccc(O)cc1)NC(=O)[C@H](CO)NC(=O)[C@H](CO)NC(=O)[C@@H](NC(=O)[C@H](CC(=O)O)NC(=O)[C@H](CO)NC(=O)[C@@H](NC(=O)[C@H](Cc1ccccc1)NC(=O)[C@@H](NC(=O)CNC(=O)[C@H](CCC(=O)O)NC(=O)C(C)(C)NC(=O)[C@@H](N)Cc1c[nH]cn1)[C@@H](C)O)[C@@H](C)O)C(C)C)C(=O)N[C@@H](C)C(=O)N[C@@H](Cc1c[nH]c2ccccc12)C(=O)N[C@@H](CC(C)C)C(=O)N[C@H](C(=O)N[C@@H](CCCNC(=N)N)C(=O)NCC(=O)N[C@@H](CCCNC(=N)N)C(=O)N[C@@H](CCCCNC(=O)CN(CCCNC(=O)COCCOCCNC(=O)COCCOCCNC(=O)COCCOCCNC(=O)COCCOCCNC(=O)COCCOCCNC(=O)COCCOCCNC(=O)CC[C@H](NC(=O)[C@H]1CC[C@H](CNC(=O)CCCCCCCCCCCCCCCCCCC(=O)O)CC1)C(=O)O)CCCNC(=O)COCCOCCNC(=O)COCCOCCNC(=O)COCCOCCNC(=O)COCCOCCNC(=O)COCCOCCNC(=O)COCCOCCNC(=O)CC[C@H](NC(=O)[C@H]1CC[C@H](CNC(=O)CCCCCCCCCCCCCCCCCCC(=O)O)CC1)C(=O)O)C(=O)O)C(C)C [Example 3]	20	410	22000	159	–	–	–
CC[C@H](C)[C@H](NC(=O)[C@H](Cc1ccccc1)NC(=O)[C@H](CCC(=O)O)NC(=O)[C@H](CCCNC(=N)N)NC(=O)[C@H](C)NC(=O)[C@H](C)NC(=O)[C@H](CCC(N)=O)NC(=O)[C@H](CCC(=O)O)NC(=O)[C@H](CCC(=O)O)NC(=O)[C@H](CC(C)C)NC(=O)[C@H](Cc1ccc(O)cc1)NC(=O)[C@H](CO)NC(=O)[C@H](CO)NC(=O)[C@@H](NC(=O)[C@H](CC(=O)O)NC(=O)[C@H](CO)NC(=O)[C@@H](NC(=O)[C@H](Cc1ccccc1)NC(=O)[C@@H](NC(=O)CNC(=O)[C@H](CCC(=O)O)NC(=O)C(C)(C)NC(=O)[C@@H](N)Cc1c[nH]cn1)[C@@H](C)O)[C@@H](C)O)C(C)C)C(=O)N[C@@H](C)C(=O)N[C@@H](Cc1c[nH]c2ccccc12)C(=O)N[C@@H](CC(C)C)C(=O)N[C@H](C(=O)N[C@@H](CCCNC(=N)N)C(=O)NCC(=O)N[C@@H](CCCNC(=N)N)C(=O)N[C@@H](CCCCNC(=O)CN(CCCNC(=O)COCCOCCNC(=O)COCCOCCNC(=O)COCCOCCNC(=O)COCCOCCNC(=O)COCCOCCNC(=O)[C@@H](N)CCCCNC(=O)[C@@H](N)CCCCNC(=O)CCCNC(=O)CCCCCCCCCCCCCCCS(=O)(=O)O)CCCNC(=O)COCCOCCNC(=O)COCCOCCNC(=O)COCCOCCNC(=O)COCCOCCNC(=O)COCCOCCNC(=O)[C@@H](N)CCCCNC(=O)[C@@H](N)CCCCNC(=O)CCCNC(=O)CCCCCCCCCCCCCCCS(=O)(=O)O)C(=O)O)C(C)C [Example 9, N{Epsilon-37}-[2-[bis[3-[[2-[2-[2-[[2-[2-[2-[[2-[2-[2-[[2-[2-[2-[[2-[2-[2-[[(2S)-2-amino-6-[[(2S)-2-amino-6-[4-(16-sulfohexadecanoylamino)butanoylamino]hexanoyl]amino]hexanoyl]amino]ethoxy]ethoxy]acetyl]amino]ethoxy]ethoxy]acetyl]amino]ethoxy]ethoxy]acetyl]amino]ethoxy]ethoxy]acetyl]amino]ethoxy]ethoxy]acetyl]amino]propyl]amino]acetyl]-[Aib8,Glu22,Arg26,Arg34,Lys37]-GLP-1-(7-37)-peptide]	–	160	–	104	1.6	29000	–
CC[C@H](C)[C@H](NC(=O)[C@H](Cc1ccccc1)NC(=O)[C@H](CCC(=O)O)NC(=O)[C@H](CCCNC(=N)N)NC(=O)[C@H](C)NC(=O)[C@H](C)NC(=O)[C@H](CCC(N)=O)NC(=O)[C@H](CCC(=O)O)NC(=O)[C@H](CCC(=O)O)NC(=O)[C@H](CC(C)C)NC(=O)[C@H](Cc1ccc(O)cc1)NC(=O)[C@H](CO)NC(=O)[C@H](CO)NC(=O)[C@@H](NC(=O)[C@H](CC(=O)O)NC(=O)[C@H](CO)NC(=O)[C@@H](NC(=O)[C@H](Cc1ccccc1)NC(=O)[C@@H](NC(=O)CNC(=O)[C@H](CCC(=O)O)NC(=O)C(C)(C)NC(=O)[C@@H](N)Cc1c[nH]cn1)[C@@H](C)O)[C@@H](C)O)C(C)C)C(=O)N[C@@H](C)C(=O)N[C@@H](Cc1c[nH]c2ccccc12)C(=O)N[C@@H](CC(C)C)C(=O)N[C@H](C(=O)N[C@@H](CCCNC(=N)N)C(=O)NCC(=O)N[C@@H](CCCNC(=N)N)C(=O)N1CCC[C@H]1C(=O)N[C@@H](CCCCNC(=O)CN(CCCNC(=O)COCCOCCNC(=O)COCCOCCNC(=O)COCCOCCNC(=O)COCCOCCNC(=O)COCCOCCNC(=O)COCCOCCNC(=O)CC[C@H](NC(=O)[C@H]1CC[C@H](CNC(=O)CCCCCCCCCCCCCCCCCCC(=O)O)CC1)C(=O)O)CCCNC(=O)COCCOCCNC(=O)COCCOCCNC(=O)COCCOCCNC(=O)COCCOCCNC(=O)COCCOCCNC(=O)COCCOCCNC(=O)CC[C@H](NC(=O)[C@H]1CC[C@H](CNC(=O)CCCCCCCCCCCCCCCCCCC(=O)O)CC1)C(=O)O)C(=O)O)C(C)C [Example 10] (H-H[Aib]EGTFTSDVSSYLEEQAAREFIAWLVRGRPK(X1)-OH; N-terminus and C-terminus assumed)	–	–	–	–	–	–	151
CC[C@H](C)[C@H](NC(=O)[C@H](Cc1ccccc1)NC(=O)[C@H](CCC(=O)O)NC(=O)[C@H](CCCNC(=N)N)NC(=O)[C@H](C)NC(=O)[C@H](C)NC(=O)[C@H](CCC(N)=O)NC(=O)[C@H](CCC(=O)O)NC(=O)[C@H](CCC(=O)O)NC(=O)[C@H](CC(C)C)NC(=O)[C@H](Cc1ccc(O)cc1)NC(=O)[C@H](CO)NC(=O)[C@H](CO)NC(=O)[C@@H](NC(=O)[C@H](CC(=O)O)NC(=O)[C@H](CO)NC(=O)[C@@H](NC(=O)[C@H](Cc1ccccc1)NC(=O)[C@@H](NC(=O)CNC(=O)[C@H](CCC(=O)O)NC(=O)C(C)(C)NC(=O)[C@@H](N)Cc1c[nH]cn1)[C@@H](C)O)[C@@H](C)O)C(C)C)C(=O)N[C@@H](C)C(=O)N[C@@H](Cc1c[nH]c2ccccc12)C(=O)N[C@@H](CC(C)C)C(=O)N[C@H](C(=O)N[C@@H](CCCNC(=N)N)C(=O)NCC(=O)N[C@@H](CCCNC(=N)N)C(=O)N[C@@H](CCCCNC(=O)COCCOCCNC(=O)COCCOCCNC(=O)CN(CCCNC(=O)COCCOCCNC(=O)COCCOCCNC(=O)COCCOCCNC(=O)COCCOCCNC(=O)CC[C@H](NC(=O)[C@H]1CC[C@H](CNC(=O)CCCCCCCCCCCCCCCCCCC(=O)O)CC1)C(=O)O)CCCNC(=O)COCCOCCNC(=O)COCCOCCNC(=O)COCCOCCNC(=O)COCCOCCNC(=O)CC[C@H](NC(=O)[C@H]1CC[C@H](CNC(=O)CCCCCCCCCCCCCCCCCCC(=O)O)CC1)C(=O)O)C(=O)O)C(C)C [Example 11]	17	350	33000	–	–	–	160
CC[C@H](C)[C@H](NC(=O)[C@H](Cc1ccccc1)NC(=O)[C@H](CCC(=O)O)NC(=O)[C@H](CCCNC(=N)N)NC(=O)[C@H](C)NC(=O)[C@H](C)NC(=O)[C@H](CCC(N)=O)NC(=O)[C@H](CCC(=O)O)NC(=O)[C@H](CCC(=O)O)NC(=O)[C@H](CC(C)C)NC(=O)[C@H](Cc1ccc(O)cc1)NC(=O)[C@H](CO)NC(=O)[C@H](CO)NC(=O)[C@@H](NC(=O)[C@H](CC(=O)O)NC(=O)[C@H](CO)NC(=O)[C@@H](NC(=O)[C@H](Cc1ccccc1)NC(=O)[C@@H](NC(=O)CNC(=O)[C@H](CCC(=O)O)NC(=O)C(C)(C)NC(=O)[C@@H](N)Cc1c[nH]cn1)[C@@H](C)O)[C@@H](C)O)C(C)C)C(=O)N[C@@H](C)C(=O)N[C@@H](Cc1c[nH]c2ccccc12)C(=O)N[C@@H](CC(C)C)C(=O)N[C@H](C(=O)N[C@@H](CCCNC(=N)N)C(=O)NCC(=O)N[C@@H](CCCNC(=N)N)C(=O)N[C@@H](CCCCNC(=O)COCCOCCNC(=O)COCCOCCNC(=O)COCCOCCNC(=O)COCCOCCNC(=O)CN(CCCNC(=O)CC[C@H](NC(=O)[C@H]1CC[C@H](CNC(=O)CCCCCCCCCCCCCCCCCCC(=O)O)CC1)C(=O)O)CCCNC(=O)CC[C@H](NC(=O)[C@H]1CC[C@H](CNC(=O)CCCCCCCCCCCCCCCCCCC(=O)O)CC1)C(=O)O)C(=O)O)C(C)C [Example 27, N{Epsilon-37}-[2-[2-[2-[[2-[2-[2-[[2-[2-[2-[[2-[2-[2-[[2-[bis[3-[[(4S)-4-carboxy-4-[[4-[(19-carboxynonadecanoylamino)methyl]cyclohexanecarbonyl]amino]butanoyl]amino]propyl]amino]acetyl]amino]ethoxy]ethoxy]acetyl]amino]ethoxy]ethoxy]acetyl]amino]ethoxy]ethoxy]acetyl]amino]ethoxy]ethoxy]acetyl]-[Aib8,Glu22,Arg26,Arg34,Lys37]-GLP-1-(7-37)-peptide]	–	–	–	–	–	–	138

Source: patent US11572398B2, “GLP-1 derivatives and uses thereof” (Novo Nordisk A/S, priority 2014, dated 2023)
